Test results taken from US10111890B2, “9-aminomethyl minocycline compounds and uses thereof” (Paratek Pharmaceuticals, Inc., priority 2016, dated 2018).
Read-outs that look alike come from different tables or passages of the source.

Legend:
Type in all cases: in vivo, human
[1] = Phase 1 food-effect study: safety and tolerability
Protocol: Safety and tolerability was assessed by: Adverse events (AEs); vital sign measurements at multiple time-points within 24 hours post-dose in each treatment period; and clinical laboratory tests 24 hours post-dose in each treatment period.

[2] = Phase 1 multiple oral dose study: urine pharmacokinetics; conditions: for CL renal: human
Protocol: Urine samples were only collected from a subset of subjects because analysis of urine PK was added by an amendment to the study protocol after the study was already underway. […] Additional parameters […] Ae0-24 were also calculated.

[3] = Phase 1 food-effect crossover study: plasma PK after single 300 mg oral dose; conditions: for AUC(0-inf) / AUC(0-t) / Cmax / Tmax: plasma, po, 300 mg; for Tmax: read-out: Tmax
Protocol: These meals were to be consumed within 20 minutes. Dose administration for Treatments B, C, and D was based off of the end time of the meal. […] Geometric means were determined for AUC and Cmax. PK parameters were evaluated using non-compartmental analysis using Phoenix® WinNonlin® (Pharsight Corp, St. Louis, Mo.), Version 6.2.1. Confidence intervals (CI) for test treatments (fed states: Treatments B, C, and D) compared with the reference treatment (fasted state: Treatment A) were constructed for AUC0-24, AUC0-t, AUC0-inf, and Cmax.

[4] = single 300 mg oral dose, healthy subjects

CN(C)c1cc(CNCC(C)(C)C)c(O)c2c1C[C@H]1C[C@H]3[C@H](N(C)C)C(O)=C(C(N)=O)C(=O)[C@@]3(O)C(O)=C1C2=O [Omadacycline, 9-[(2,2-dimethyl-propylamino)-methyl]-minocycline]
serious AE (SAE) [1, 4]: no subject experienced a serious AE
treatment-related adverse events, clinically relevant changes in laboratory values or vital signs [1, 4]: No treatment-related adverse events or clinically relevant changes in laboratory values, or vital signs occurred
median change from baseline in heart rate ([1]; single 300 mg oral dose, all other treatment groups, all measured time points): ≤ 3 bpm
tolerability ([1]; single oral dose (300 mg), healthy subjects): well tolerated
Ae0-24, Mean (CV) ([2]; 300 mg, Day 1 (n = 2)): 20.37 (8.3) mg
Fe0-24, Mean (CV) ([2]; 300 mg, Day 1 (n = 2)): 6.79 (8.3) %
Ae0-24, Mean (CV) ([2]; 300 mg, Day 5 (n = 3)): 26.14 (14.6) mg
Fe0-24, Mean (CV) ([2]; 300 mg, Day 5 (n = 3)): 8.71 (14.6) %
Ae0-24, Mean (CV) ([2]; 450 mg, Day 1 (n = 3)): 25.06 (16.8) mg
Fe0-24, Mean (CV) ([2]; 450 mg, Day 1 (n = 3)): 5.57 (16.8) %
Ae0-24, Mean (CV) ([2]; 450 mg, Day 5 (n = 5)): 30.81 (33.0) mg
Fe0-24, Mean (CV) ([2]; 450 mg, Day 5 (n = 5)): 6.85 (33.0) %
Ae0-24, Mean (CV) ([2]; 600 mg, Day 1 (n = 1)): 31.96 mg
Fe0-24, Mean (CV) ([2]; 600 mg, Day 1 (n = 1)): 5.33%
Ae0-24, Mean (CV) ([2]; 600 mg, Day 5 (n = 4)): 51.82 (14.8) mg
Fe0-24, Mean (CV) ([2]; 600 mg, Day 5 (n = 4)): 8.64 (14.8) %
CL renal ([2]; in vivo, 300 mg, Day 1 (n = 2), read-out: CLr, Mean (CV) (converted)): 50.2 mL/min
CL renal ([2]; in vivo, 300 mg, Day 5 (n = 3), read-out: CLr, Mean (CV) (converted)): 54.7 mL/min
CL renal ([2]; in vivo, 450 mg, Day 1 (n = 3), read-out: CLr, Mean (CV) (converted)): 46.7 mL/min
CL renal ([2]; in vivo, 450 mg, Day 5 (n = 5), read-out: CLr, Mean (CV) (converted)): 39.7 mL/min
CL renal ([2]; in vivo, 600 mg, Day 1 (n = 1), read-out: CLr, Mean (CV) (converted)): 69.5 mL/min
CL renal ([2]; in vivo, 600 mg, Day 5 (n = 4), read-out: CLr, Mean (CV) (converted)): 50.8 mL/min
CL renal ([2]; urine, oral, all omadacycline dose groups, Day 1, read-out: Renal clearance (CLr)): 46.7 to 70 mL/min
CL renal ([2]; urine, oral, all omadacycline dose groups, Day 5, read-out: Renal clearance (CLr)): 40 to 55 mL/min
AUC0-24, Mean (Coefficient of Variation) ([3]; Treatment A: fasted overnight): 7.2 (28.1) mcg * h/mL
AUC0-t, Mean (Coefficient of Variation) ([3]; Treatment A: fasted overnight): 7.2 (28.1) mcg * h/mL
half-life ([3]; human, in vivo, across all treatment periods, read-out: mean T1/2): 810 to 828 min
AUC(0-inf) ([3]; human, Treatment A: fasted overnight (N = 30), read-out: AUC0-inf, Geometric LS Mean): 10600 ng·h/mL
AUC(0-t) ([3]; human, Treatment A: fasted overnight, read-out: AUC0-24, Geometric LS Mean): 7400 ng·h/mL
AUC(0-t) ([3]; human, Treatment A: fasted overnight, read-out: AUC0-24, Mean (Coefficient of Variation)): 7200 ng·h/mL
AUC(0-inf) ([3]; human, Treatment A: fasted overnight, read-out: AUC0-inf, Mean (Coefficient of Variation)): 10200 ng·h/mL
AUC(0-t) ([3]; human, Treatment A: fasted overnight, read-out: AUC0-t, Geometric LS Mean): 7400 ng·h/mL
AUC(0-t) ([3]; human, Treatment A: fasted overnight, read-out: AUC0-t, Mean (Coefficient of Variation)): 7200 ng·h/mL
Cmax ([3]; human, Treatment A: fasted overnight, read-out: Cmax, Geometric LS Mean): 660 ng/mL
Cmax ([3]; human, Treatment A: fasted overnight, read-out: Cmax, Mean (Coefficient of Variation)): 600 ng/mL
Tmax ([3]; human, Treatment A: fasted overnight): 2.5 h
AUC(0-t) ([3]; human, Treatment B: high-fat nondairy meal 4 h before dosing, read-out: AUC0-24, Geometric LS Mean): 6200 ng·h/mL
AUC(0-t) ([3]; human, Treatment B: high-fat nondairy meal 4 h before dosing, read-out: AUC0-24, Mean (Coefficient of Variation)): 6100 ng·h/mL
AUC(0-inf) ([3]; human, Treatment B: high-fat nondairy meal 4 h before dosing, read-out: AUC0-inf, Geometric LS Mean): 9000 ng·h/mL
AUC(0-inf) ([3]; human, Treatment B: high-fat nondairy meal 4 h before dosing, read-out: AUC0-inf, Mean (Coefficient of Variation)): 8800 ng·h/mL
AUC(0-t) ([3]; human, Treatment B: high-fat nondairy meal 4 h before dosing, read-out: AUC0-t, Geometric LS Mean): 6200 ng·h/mL
AUC(0-t) ([3]; human, Treatment B: high-fat nondairy meal 4 h before dosing, read-out: AUC0-t, Mean (Coefficient of Variation)): 6100 ng·h/mL
Cmax ([3]; human, Treatment B: high-fat nondairy meal 4 h before dosing, read-out: Cmax, Geometric LS Mean): 560 ng/mL
Cmax ([3]; human, Treatment B: high-fat nondairy meal 4 h before dosing, read-out: Cmax, Mean (Coefficient of Variation)): 600 ng/mL
Tmax ([3]; human, Treatment B: high-fat nondairy meal 4 h before dosing): 2.9 h
AUC(0-t) ([3]; human, Treatment C: high-fat nondairy meal 2 h before dosing, read-out: AUC0-24, Geometric LS Mean): 4300 ng·h/mL
AUC(0-t) ([3]; human, Treatment C: high-fat nondairy meal 2 h before dosing, read-out: AUC0-24, Mean (Coefficient of Variation)): 4200 ng·h/mL
AUC(0-inf) ([3]; human, Treatment C: high-fat nondairy meal 2 h before dosing, read-out: AUC0-inf, Geometric LS Mean): 6200 ng·h/mL
AUC(0-inf) ([3]; human, Treatment C: high-fat nondairy meal 2 h before dosing, read-out: AUC0-inf, Mean (Coefficient of Variation)): 6000 ng·h/mL
AUC(0-t) ([3]; human, Treatment C: high-fat nondairy meal 2 h before dosing, read-out: AUC0-t, Geometric LS Mean): 4300 ng·h/mL
AUC(0-t) ([3]; human, Treatment C: high-fat nondairy meal 2 h before dosing, read-out: AUC0-t, Mean (Coefficient of Variation)): 4200 ng·h/mL
Cmax ([3]; human, Treatment C: high-fat nondairy meal 2 h before dosing, read-out: Cmax, Geometric LS Mean): 390 ng/mL
Cmax ([3]; human, Treatment C: high-fat nondairy meal 2 h before dosing, read-out: Cmax, Mean (Coefficient of Variation)): 400 ng/mL
Tmax ([3]; human, Treatment C: high-fat nondairy meal 2 h before dosing): 2.9 h
AUC(0-t) ([3]; human, Treatment D: high-fat meal incl. dairy 2 h before dosing, read-out: AUC0-24, Geometric LS Mean): 2800 ng·h/mL
AUC(0-t) ([3]; human, Treatment D: high-fat meal incl. dairy 2 h before dosing, read-out: AUC0-24, Mean (Coefficient of Variation)): 2800 ng·h/mL
AUC(0-inf) ([3]; human, Treatment D: high-fat meal incl. dairy 2 h before dosing, read-out: AUC0-inf, Geometric LS Mean): 4000 ng·h/mL
AUC(0-inf) ([3]; human, Treatment D: high-fat meal incl. dairy 2 h before dosing, read-out: AUC0-inf, Mean (Coefficient of Variation)): 4000 ng·h/mL
